Source: US8986676B2, “MNTF differentiation and growth of stem cells” (Genervon Biopharmaceuticals LLC, priority 2005, dated 2015)
“Also recorded” adds a separate entry of the source. Ends that are not written are not given here.

How the values were obtained:
mouse ES cells [1] = test: MNTF induced differentiation in the presence of Shh inhibitor (GFP fluorescence of embryoid bodies); assay type: cell-based; conditions: inhibitor 5 μM, day 5; for effect of inhibitor on MNTF induced differentiation of ES cells: RA + MNTF 33mer at 10 μg/ul; for effect of inhibitor on the GFP fluorescence effect of Shh-Agonist: RA + Shh agonist
Description: The ES cells were differentiated as mentioned above and at day 0 they were treated with RA+Shh-Agonist; RA+Shh Agonist+Cyclopamine-KAAD (5 μM); RA+MNTF (33mer at 10 μg/ul); and RA+Cyclopamine-KAAD (5 μM)+MNTF (33mer at 10 μg/ul). The inhibitor was pretreated for an hour before the addition of the other components.
At day 5 of differentiation the embryoid bodies were checked for GFP fluoresence indicating the differentiation of the ES cells into a motor neuron phenotype.
Receptor kinase studies were used to measure the affinity of MNTF for the Insulin Receptor (IR). […] We then tested whether signals through either of these pathways are possible in generating motor neurons. […] Thus, MNTF is still capable of generating post-mitotic mature motor neurons.
FIG. 5 illustrates a comparison of the expression of GFP fluorescence under the control of the motor neuron specific HB9 promoter at day 5 of differentiation in response to control (A), RA (3); RA/Shh (C); cyclopamine-KAAD, RA/Shh (D); RA and MNTF 33mer (E); Cyclopamine-KAAD, RA and MNTF 33mer (F).

[2] = test system: ES cells derived from an HB9-GFP-transgenic mouse; test: Differentiation of ES cells into motor neurons (eGFP under HB9 promoter in embryoid bodies); assay type: cell-based; conditions: for expression of eGFP under the control of the HB9 promoter (green fluorescence of EBs) compared with RA and Shh agonist: EBs treated with RA (1 μM) and peptide; for differentiation of ES cells into motor neurons: in the presence of RA; for concentration at which elevated fluorescence was detectable (as low as) / concentration at which fluorescence appeared to be optimal: with RA; for concentration at which fluorescence appeared to be optimal: in this experiment
Description: ES cells were derived from an HB9-GFP-transgenic mouse and fluoresce green upon adoption of a motoneuron phenotype [Wichterle, H. et al. ([…]) Cell 110, 385-397, incorporated herein by reference]. The mouse ES cells were maintained in a proliferative and undifferentiated state in the presence of murine LIF (Chemicon). The ES cells were cultured on a feeder layer of primary mouse embryonic fibroblasts that were mitomycin treated.
Mouse ES cells were separated from the feeder layer of fibroblasts. This was done by trypsinizing and plating the cell mixture on cell culture flasks coated with 0.1% gelatin. The fibroblasts attached specifically on the gelatin leaving a pure population of floating ES cells. The floating ES cells were collected and resuspended in differentiating medium. This stage was called “d−1”. The ES cells formed embryoid bodies (EBs) and 24 hours later (“d0”) were exposed to RA (1 μM)+MNTF or RA (1 μM)+Shh agonist (1 μM). MNTF peptides (all six forms) were tested at a final concentration range of 0.1 μg/ml-150 μg/ml.
The differentiation assay was carried for six days from “d−1” stage.

IR/IGF1R [pYpY1162/1163] = test: Autophosphorylation of Insulin/IGF receptor(s), western blot of embryoid bodies; assay type: cell-based, mouse; conditions: for autophosphorylation of IR/IGF-R (pTyr 1162/1163): RA (1 μM) + MNTF 33mer (10 μg/ml), FIG. 3
Description: Embryoid bodies (EBs) were exposed to RA (1 μM)+MNTF 33mer (10 μg/ml) or RA (1 μM)+MNTF 33mer (10 μg/ml)+/−HNMPA-(AM)3 (50 nM). Cells were harvested at 0, 15 min, 30 min, 1 h, 2 h and 4 h time points.
The cells were harvested as described previously [Barber, A. J. et al., (2001) J. Biol. Chem. 276, 32814-32821]. Protein concentrations were measured with the Pierce BCA reagent, and all samples were adjusted for equal protein before SDS-polyacrylamide gel electrophoresis.
Cell lysates were immunoblotted with polyclonal antibodies against phosphotyrosines 1162-1163 of IR/IGFR1 following the manufacturer's directions or standard techniques. Protein bands were detected by enhanced chemical fluorescence. Densitometric analysis of enhanced chemical fluorescence immunoblots was performed with ImageQuant (Molecular Dynamics, Sunnyvale, Calif.).

[3] = test system: ES cell-derived motor neurons; test: Survival of ES cell-derived motor neurons in dissociated cultures; assay type: cell-based, mouse; conditions: for maintaining dissociated cultures: dissociated ES-derived motor neuron cultures; for enhancement of survival of stem cell derived motor neurons: percentage survivability on day ten, FIG. 4
Description: Mouse embryonic stem (ES) cells were differentiated in the presence of RA and Hg-agonist (Curis, Inc.). On day four, the differentiated embryoid bodies were partially dissociated with 0.05% trypsin or Collagenase and Dispase (1 mg/ml in PBS) and plated on coverslips coated with PLL-Laminin and matrigel.
The dissociated cultures were then treated with GDNF (10 ng/ml), MNTF (all seven forms) at different doses (0.1 μg/ml, 1 μg/ml, 10 μg/ml and 50 μg/ml), and dbcAMP (1 μM), NT3 (10 μg/ml) at day five.
Neurons and their axons were identified by using the fluorescence produced by GFP expressed from the HB9 promoter. Neurite outgrowth can be quantified as described previously [Harper, J. M. et al. (2004) PNAS 101, 7123-7128, incorporated herein by reference] at day six, eight and ten. Percentage survivability was calculated on day ten by counting the total number of cells with existing axons.

mouse ES cells [4] = test: Differentiation of ES cells in the presence of IR or IGF1-R inhibitor (GFP fluorescence of day 5 embryoid bodies); assay type: cell-based; conditions: for effect of inhibitor on MNTF induced differentiation (GFP fluorescence): HNMPA(AM)3 15 μM or PPP 1 μM, RA/MNTF33 or RA/MNTF10, FIG. 6
[5] = test system: motor neuron derived cell lines; conditions: compared with MNTF1-F6 33-mer; cited from earlier work
motor neurons = conditions: in vivo, compared with MNTF1-F6 33-mer; cited from earlier work
[6] = test system: anterior horn motor neurons; conditions: rat lumbar spinal cord explants; cited from earlier work
surviving motor neurons = conditions: axotomized rat peripheral nerves, versus untreated controls; cited from earlier work
spinal cord hemi-section = conditions: rats, MNTF1-containing gel sections near nerve graft junctions; cited from earlier work
wobbler mice = conditions: MNTF1-containing gel sections implanted at C7-T3 region; cited from earlier work

3-keto-N-(aminoethyl-aminocaproyl-dihydrocinnamoyl)cyclopamine [Cyclopamine-KAAD]
effect of inhibitor on MNTF induced differentiation of ES cells (mouse ES cells [1]): did not block MNTF induced differentiation of ES cells
effect of inhibitor on MNTF induced differentiation of ES cells (mouse ES cells [1]; listed as cyclopamine-KAAD): did not block the activity of MNTF induced differentiation
effect of inhibitor on the GFP fluorescence effect of Shh-Agonist (mouse ES cells [1]): blocked the GFP fluoresence effect of Shh-Agonist
effect of inhibitor on the GFP fluorescence effect of Shh-Agonist (mouse ES cells [1]; listed as cyclopamine-KAAD): blocks the effect of Shh on mouse ES cells

33mer: 33 amino acid MNTF1-F6 sequence (SEQ ID NO:1), synthesized by solid phase synthesis (LGTFWGDTLNCWMLSAFSRYARCLAEGHDGPTQ)
expression of eGFP under the control of the HB9 promoter (green fluorescence of EBs) compared with RA and Shh agonist ([2]; FIG. 2): to the same extent or greater than EBs treated with RA and Shh agonist
differentiation of ES cells into motor neurons [2]: effectively substitute for Sonic Hedgehog
differentiation of ES cells into motor neurons ([2]; listed as 33-mer): induced differentiation of ES cells into motor neurons; also recorded: capable of inducing differentiation of ES cells into differentiated motor neurons
concentration at which elevated fluorescence was detectable (as low as) ([2]; FIG. 2): 0.1 µg/mL
concentration at which fluorescence appeared to be optimal [2]: about 10 μg/ml
autophosphorylation of IR/IGF-R (pTyr 1162/1163) (IR/IGF1R [pYpY1162/1163]): autophosphorylation of IR/IGF-R
autophosphorylation of IR/IGF-R (pTyr 1162/1163) (IR/IGF1R [pYpY1162/1163]; listed as MNTF1 33-mer): associated with autophosphorylation of the insulin receptor (IR) and/or insulin-like growth factor receptor (IGF-R)
maintaining dissociated cultures [3]: effective at maintaining dissociated cultures up to 10 days

CC(=O)OCOC(c1ccc2ccccc2c1)P(=O)(OCOC(C)=O)OCOC(C)=O (stereo not drawn) [HNMPA-(AM)3, Hydroxy-2-naphthalenylmethylphosphonic acid trisacetoxymethyl ester]
effect of IR inhibitor on autophosphorylation of IR/IGF-R in MNTF 33mer treated cells (IR/IGF1R [pYpY1162/1163]; HNMPA-(AM)3 50 nM with RA + MNTF 33mer (10 μg/ml)): reduced autophosphorylation within 15 min
effect of inhibitor on MNTF induced differentiation (GFP fluorescence) (mouse ES cells [4]): blocks the effect of MNTF on mouse ES cells
effect of inhibitor on Shh induced differentiation (GFP fluorescence) (mouse ES cells [4]; HNMPA(AM)3 15 μM, FIG. 6): did not block the activity of Shh induced differentiation

COc1cc([C@@H]2c3cc4c(cc3[C@H](O)[C@H]3COC(=O)[C@@H]23)OCO4)cc(OC)c1OC [picrodophyllin]
effect of inhibitor on MNTF induced differentiation (GFP fluorescence) (mouse ES cells [4]): does not effectively block the activity of MNTF induced differentiation

FSRYAR [6mer]
enhancement of survival of stem cell derived motor neurons [3]: sufficient to enhance survival of stem cell derived motor neurons
proliferation of motor neuron derived cell lines [5]: sufficient to stimulate the proliferation of motor neuron derived cell lines
selective reinnervation of muscle targets by motor neurons (motor neurons): sufficient to direct selective reinnervation of muscle targets

FSRYARCLAEG (Synthetic MNTF peptide analog) [11mer]
enhancement of survival of stem cell derived motor neurons [3]: sufficient to enhance survival of stem cell derived motor neurons

MLSAFSRYAR (Synthetic MNTF peptide analog) [10mer]
expression of eGFP under the control of the HB9 promoter (green fluorescence of EBs) compared with RA and Shh agonist ([2]; FIG. 2): to the same extent or greater than EBs treated with RA and Shh agonist
differentiation of ES cells into motor neurons [2]: effectively substitute for Sonic Hedgehog
differentiation of ES cells into motor neurons ([2]; listed as MNTF 10-mer): capable of inducing differentiation of ES cells into differentiated motor neurons
concentration at which differentiation is stimulated (as low as) ([2]; in vitro, FIG. 2): 0.01 µg/mL
effectiveness at stimulating differentiation of embryonic stem cells into motor neurons compared with MNTF 33mer ([2]; in vitro, FIG. 2): at least as effective the full-length MNTF 33mer
concentration at which elevated fluorescence was detectable (as low as) ([2]; FIG. 2): 0.1 µg/mL
concentration at which fluorescence appeared to be optimal [2]: about 10 μg/ml
maintaining dissociated cultures [3]: effective at maintaining dissociated cultures up to 10 days
enhancement of survival of stem cell derived motor neurons [3]: nearly as effective as the MNTF 33mer

MLSAFSRYARCLAEGHDGPTQ (CWMLSAFSRYARC; Synthetic MNTF peptide sequence) [21mer]
enhancement of survival of stem cell derived motor neurons [3]: sufficient to enhance survival of stem cell derived motor neurons

MNTF1: naturally occurring and recombinant motoneuronotrophic factor 1 polypeptides; in b137 the word stands for the synthetic 33-mer (LGTFWGDTLNCWMLSAFSRYARCLAEGHDGPTQ)
survival in vitro of anterior horn motor neurons [6]: selectively enhance the survival
percentage of surviving motor neurons (surviving motor neurons): markedly higher percentage of surviving motor neurons than untreated controls
surviving motor neurons and functional recovery (spinal cord hemi-section): greater numbers of surviving motor neurons, improved recovery of motor and sensory function
progression of symptoms (wobbler mice): delayed the progression of symptoms in wobbler mice

WMLSAFS [7mer]
enhancement of survival of stem cell derived motor neurons [3]: sufficient to enhance survival of stem cell derived motor neurons
proliferation of motor neuron derived cell lines [5]: sufficient to stimulate the proliferation of motor neuron derived cell lines
